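Dose response: 5 concentrations. Exposure: 48 h. Format: 96-well plates. Endpoint: linear interpolation; highest concentration if not reached. TGI: concentration producing complete growth inhibition.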 Where a SMILES comes first, the peptide text is derived from it. Bridges are numbered along the chain shown (N, C = ends). [ ]: non-standard residue; d: D form. The star is where a group is joined. ξ: configuration not given here. Cbz = O=C(OCc1ccccc1)*; ξD = NC(CC(=O)O)C(=O)O; Ac3c = NC1(C(=O)O)CC1; Boc = CC(C)(C)OC(=O)*; OtBu = CC(C)(C)O*
Legend:
Test in all cases: growth of human tumour cells (NCI), 48 h
[1] = tested on: BT-549 breast
[2] = tested on: HCC-2998 colon
[3] = tested on: SK-OV-3 ovarian
[4] = tested on: K-562 leukemia
[5] = tested on: SW-620 colon
[6] = tested on: HL-60(TB) leukemia
[7] = tested on: OVCAR-5 ovarian
[8] = tested on: ACHN renal
[9] = tested on: HCT-116 colon
[10] = tested on: SN12C renal

Compound | TGI [1] [µM] | TGI [2] [µM] | TGI [3] [µM] | TGI [4] [µM] | TGI [5] [µM] | TGI [6] [µM] | TGI [7] [µM] | TGI [8] [µM] | TGI [9] [µM] | TGI [10] [µM]
Cc1ccc(SC[C@@]2(C(F)F)NC(=O)NC2=O)cc1 | > 100 | > 100 | > 100 | > 100 | > 100 | > 100 | > 100 | > 100 | > 100 | –
CC(C)C(C/C=C1/CC(CO)(COC(=O)C2CCCCC2)OC1=O)C(C)C (configuration not stated) | 54.8 | 59.8 | > 100 | > 100 | 42.5 | – | 40.7 | 30.2 | 33.9 | 31.9
COc1ccc2c(-c3ccc(OCCN(C)C)cc3)c(Oc3ccc(Cl)cc3)c(=O)oc2c1 | 37.6 | 9.63 | 29.3 | 4.95 | > 46.8 | – | 36.8 | 20.9 | 8.49 | > 53.3
Cc1ccc(S(=O)(=O)c2ccc([N+](=O)[O-])o2)cc1 | 6.16 | 13.1 | 35.2 | – | 1.73 | – | 4.77 | 3.03 | 3.94 | 35.5
COc1cc2c(cc1C)NC(=O)/C2=C\c1ccncc1 | – | 30 | 13.7 | > 100 | > 100 | > 100 | 29.1 | 20.2 | 5.09 | 20.9
COC(=O)C1(NC(=O)C(CC(=O)OC(C)(C)C)NC(=O)OC(C)(C)C)CC1 (configuration not stated) (Boc-[ξD](OtBu)-[Ac3c]-OMe) | > 100 | > 100 | > 100 | > 100 | > 100 | – | > 100 | > 100 | > 100 | > 100
O=C1CCC2(O)C3Cc4ccc(Oc5nnnn5-c5ccccc5)c5c4C2(CCN3CC2CC2)C1O5 (configuration not stated) | > 100 | – | > 100 | > 100 | > 100 | – | > 100 | > 100 | > 100 | > 100
CC(=O)Nc1ccc(C(=O)N2N=C(C)/C(=C/c3cccc([N+](=O)[O-])c3)C2=O)cc1 | – | > 100 | – | > 100 | > 100 | > 100 | > 100 | > 100 | > 100 | > 100
Oc1ccc(Cl)cc1C1=N/C(=N\C/N=C2\N=C(c3cc(Cl)ccc3O)CC(c3ccccc3)N2)NC(c2ccccc2)C1 (configuration not stated) | > 100 | > 100 | > 100 | > 100 | > 100 | > 100 | > 100 | > 100 | > 100 | –
COC(=O)C1CCCCNC(=O)CCC(NC(=O)OCc2ccccc2)C(=O)N1 (stereo not drawn) (Cbz-Glu-Lys-OMe; lactam 1-2; configuration not given here) | – | – | > 100 | > 100 | > 100 | > 100 | > 100 | > 100 | > 100 | > 100
COC(=O)/C=C/c1cc(OC)c2oc(-c3ccc(OC)c(OC)c3)c(C(=O)OC)c2c1 | > 100 | > 100 | > 100 | > 100 | > 100 | > 100 | > 100 | > 100 | – | > 100
C/C=C/[C@H]1O[C@@](O)([C@@H](C)[C@H](O)[C@H](C)[C@H]2OC(=O)/C(OC)=C/C(C)=C/[C@@H](C)[C@@H](O)[C@@H](CC)[C@@H](O)[C@H](C)C/C(C)=C/C=C/[C@@H]2OC)C[C@H](OC2CC(O)C(OC(N)=O)C(C)O2)[C@@H]1C (some centres not stated) | 19.7 | 18.6 | 25.4 | 0.772 | 15.3 | – | 25.7 | 16.7 | 14 | 23.5
CCCCc1ccc(-n2sc3ncccc3c2=O)cc1 | 35.7 | 33.7 | 90.5 | – | 72.1 | 6.07 | 40.6 | 23.5 | 26.3 | 37.7
CC(C)=Nn1cnc(C(=N)C#N)c1N | > 100 | > 100 | > 100 | > 100 | > 100 | > 100 | > 100 | > 100 | > 100 | –
CN1Cc2c(nc(-c3ccc(Br)cc3)c[n+]2[O-])N(C)C1 | – | – | > 100 | > 100 | > 100 | > 100 | > 100 | > 100 | > 100 | > 100
CCOC(=O)c1c(NCc2ccccc2)n(-c2ccccc2)c(=S)n(-c2ccccc2)c1=O | > 100 | > 100 | – | > 100 | > 100 | > 100 | > 100 | > 100 | – | > 100
CCNc1ncnc2c1nnn2CC | – | > 100 | > 100 | > 100 | > 100 | > 100 | – | > 100 | > 100 | > 100
CC1=NN(C(=O)c2ccc(Cl)cc2)C(=O)/C1=C/c1ccc(Cl)cc1 | – | > 100 | > 100 | > 100 | > 100 | > 100 | > 100 | > 100 | > 100 | > 100
Nc1ccc(C(=O)NN2C(=O)C(Cl)C2c2cccc(O)c2)cc1 (configuration not stated) | – | 29.8 | 34.3 | 44.5 | 36.6 | 8.76 | 41.9 | 37.9 | 25.8 | 32.3
COc1cc(C(c2cccc3ccccc23)N2C(=O)CCC2C(=O)NCc2ccccc2)cc(OC)c1OC (configuration not stated) | > 100 | > 100 | > 100 | – | > 100 | > 100 | > 100 | – | > 100 | > 100
C=C(Br)CNCC(=C)Br | – | > 100 | > 100 | > 100 | > 100 | > 100 | > 100 | > 100 | > 100 | > 100
O=S1(=O)C(c2ccccc2)=C(O)c2ccccc21 | > 100 | > 100 | – | > 100 | > 100 | > 100 | > 100 | > 100 | > 100 | –
Cc1ccnc(NC(=S)Nc2cccc(Cl)c2)c1 | > 100 | – | > 100 | > 100 | > 100 | > 100 | > 100 | – | > 100 | > 100
